Format in all cases: physicochemical
A short description of data set [1]: Humidity stress test with XRPD analysis. The note with it: unsealed vial, 7 days. On the procedure:
XRPD analyses were performed using a Panalytical Empyrean diffractometer equipped with a Cu X-ray tube and a PIXcel 1D-Medipix3 detector system. The samples were analyzed at ambient temperature in transmission mode and held between low density PVC films. The XRPD program was used (range 3-40° […], step size 0.013°, counting time 99 sec, about 22 min run time/counting time 49 sec, about 11 min run time/counting time 22 sec, about 5 min run time). Samples were spun at 60 rpm during data collection. XRPD patterns were sorted and manipulated using HighScore Plus 2.2c/v4.9 software.
A given amount of salt was charged into a vial and placed unsealed in a thermostatic tank at 40° C./75% relative humidity or ambient temperature for 7 days and XRPD analysis was performed.

Data set [2] is described as follows: Deliquescence by visual observation. The settings on record: relative humidity of about 75%, 25° C., 23 hr. On the procedure: A petri dish containing 2-MT-NDSA salt was placed in a relative humidity of about 75%, and left standing in a thermostatic tank at 25° C. for 23 hr.
Data set [3] can be described thus: Solubility in phosphate buffered saline by visual observation. The note with it: aqueous buffer, thermodynamic from solid, phosphate buffered saline (PBS pH 7.2-7.4), room temperature. On the procedure: When 2-MT-NDSA salt (20 mg) was added to phosphate buffered saline (PBS pH 7.2-7.4, FUJIFILM Wako Pure Chemical Corporation 164-18541, 1 mL) at room temperature, the salt was dissolved easily. The 2-MT-NDSA salt was further added by […] to the solution. By visual observation to confirm dissolution, undissolved remainder was confirmed when the total amount reached 200 mg. Thus, the solubility under the present conditions was 100 mg/mL to 200 mg/mL.

The nature of data set [4]: Stability in the solid state at 40° C., checked by 1H NMR. The note with it: vial, heated to 40° C., left standing for three days. The procedure:
2-MT-NDSA salt was placed in a vial, heated to 40° C., and left standing for three days. […] Thus, it can be said that 2-MT·NDSA salt is stable in the solid state at 40° C. for 3 days (corresponding to 2 weeks at 25° C.).

Counter-ions that a name gives are not always drawn.

Results on 1 compound are retold here after US20250304540A1, “2-METHYL-2-THIAZOLINE SALT” (Myrodia Therapeutics Co., Ltd., priority 2022, published 2025).

As usually defined, the solubility is the concentration that dissolves in the medium under given conditions. With `CC1=NCCS1` [2-MT-NDSA salt, monohydrate of a hemi-1,5-naphthalenedisulfonic acid salt of 2-methyl-2-thiazoline], the “physical stability post storage (XRPD)” value in data set [1] (40° C./75% relative humidity) and in data set [1] (ambient temperature) was “physically stable” each time. The deliquescence entry in data set [2] is “No deliquescence”. In data set [3], this compound came in with a solubility of 100 to 200 mg/mL. The “stability in the solid state (1H NMR before and after)” value in data set [4] is recorded as “no change in the peaks was observed”.
